Read-outs that look alike come from different tables or passages of the source.
Experiment: Plasma kinetics of TMC278 in beagle dogs after single intramuscular administration
Assay type: in vivo
Settings: single IM 2.5 mg/kg, aqueous 30% DMA/50% PEG400 solution; for half-life / Cmax / Tmax / AUC(0-t): im; for AUC(0-t): read-out: AUC0-312 h; for concentration at 0 h: 0 h (predose); for concentration at 0.5 h: 0.5 h after dose; for concentration at 1 h: 1 h after dose; for concentration at 2 h: 2 h after dose; for concentration at 4 h: 4 h after dose; for concentration at 8 h: 8 h after dose; for concentration at 24 h: 24 h after dose; for concentration at 32 h: 32 h after dose; for concentration at 48 h: 48 h after dose; for concentration at 72 h: 72 h after dose; for concentration at 96 h: 96 h after dose; for concentration at 144 h: 144 h after dose; for concentration at 192 h: 192 h after dose; for concentration at 240 h: 240 h after dose; for concentration at 312 h: 312 h after dose; for concentration at 36 day: day 36; for concentration at 50 day: day 50; for concentration at 64 day: day 64; for concentration at 78 day: day 78; for concentration at 92 day: day 92; for concentration at 106 day: day 106; for concentration at 120 day: day 120; for concentration at 134 day: day 134; for concentration at 148 day: day 148
Protocol: The present study was performed in order to study the plasma kinetics and the absolute bioavailability of TMC278 in beagle dogs after single intramuscular administration (IM) of an aqueous 30% dimethylacetamide (DMA)/50% polyethylene glycol 400 (PEG400) solution of TMC278 at 2.5 mg/kg. The dogs were dosed IM.
Two male beagle dogs (dog No. 16924 and 16854), approximately 3 years old and weighing between 11 and 12 kg at the start of the experimental phase, were used in the present experiment. The dogs were dosed intramuscularly at 0.1 ml/kg body weight by injecting the formulation in the left (dog No. 16924) or right (dog No. 16854) m. biceps femoris.
One day before dose administration, TMC278 was formulated in an aqueous 30% (w/v) DMA/50% (w/v) PEG400 solution at 25 mg/ml. The ingredients of the solution were: TMC278, DMA 30% (w/v), PEG 400 50% (w/v) and pyrogenic free water. The content of TMC278 in the formulation was checked using LC. The concentration of TMC278 in the formulation was 25 mg/ml.
Blood samples (4 ml on EDTA) were taken from a jugular vein from the dogs at 0 (=predose), 0.5, 1, 2, 4, 8, 24, 32, 48, 72, 96, 144, 192, 240 and 312 h after dose administration. After sampling, the blood samples were immediately placed on melting ice and protected from light. Blood samples were centrifuged at approximately 1900×g for 10 minutes at 5° C. to allow plasma separation. Immediately after separation, plasma samples were protected from light, placed on melting ice and stored at ≤−18° C. until analysis. Frozen plasma samples were transferred to the Bioanalytical Department. Since TMC278 was still detectable in the plasma samples at 312 h post-dose, additional blood samples of both dogs were collected on the days 36, 50, 64, 78, 92, 106, 120, 134 and 148. These samples were analogously processed and analysed.
The concentration of TMC278 in dog plasma was determined by a qualified research LC-MS/MS method after solid phase extraction (SPE). Plasma concentrations of TMC278 were determined after proper sample clean up. The samples (0.1 ml aliquots of plasma) were extracted using a solid phase extraction method (Bond Elut Certify solid phase columns, 130 mg, SPE, Varian). The SPE column was conditioned with 3 ml methanol, 3 ml water and 1 ml acetic acid 1 M.
After addition of 3 ml acetic acid to 0.1 ml aliquots of plasma, the samples were extracted on the column followed by washing the column with 1 ml water, 1 ml acetic acid 1 M and 3 ml methanol. The column was eluted with 3 ml methanol/NH4OH 25% (98:2, v/v). The extract was evaporated to dryness and reconstituted in 150 μl of ammonium formate 0.01 M (adjusted to pH 4 with formic acid)/methanol (50/50). 20 μl-aliquots were injected onto a reversed phase LC-column (100×4.6 mm ID, packed with 3 μm Hypersil C18 BDS) with a flow of 800 μl/min. The elution mixture was ammonium formate 0.01 M (adjusted to pH 4 with formic acid)/methanol (40:60, v/v). The flow-rate to the mass spectrometer was about 100 μl/min after splitting. LC-MS/MS analysis was carried out on an API-3000 system (Applied Biosystems), which was coupled to an HPLC-system.
Individual plasma concentration-time profiles were subjected to a non-compartmental pharmacokinetic analysis. Peak plasma concentrations (Cmax) and corresponding peak times (Tmax) were determined. The AUC from time 0 to time t (AUC0-t, where t is the time point associated with the last measurable concentration above the limit of quantification) was calculated by means of the linear/log trapezoidal rule: i.e. linear trapezoidal rule up to Tmax: AUC0-Tmax=Σ[(ti+1−ti). (Ci+Ci+1)/2], and log trapezoidal for the remainder of the curve: AUCTmax-t=Σ[(ti+1−ti). (Ci−Ci+1)/ln(Ci/Ci+1)], Ci and Ci+1 being the plasma concentrations at times ti and ti+1, respectively. […]

[1] = male, beagle, dog, plasma, 2.5 mg/kg, dog No. 16854
[2] = male, beagle, dog, plasma, 2.5 mg/kg, dog No. 16924
[3] = male, beagle, dog, plasma, 2.5 mg/kg, mean (n=2)
[4] = male, beagle, dog, plasma, intramuscular, 2.5 mg/kg, dog No. 16854
[5] = male, beagle, dog, plasma, intramuscular, 2.5 mg/kg, dog No. 16854, read-out: plasma concentration during the wash-out period
[6] = male, beagle, dog, plasma, intramuscular, 2.5 mg/kg, dog No. 16924
[7] = male, beagle, dog, plasma, intramuscular, 2.5 mg/kg, dog No. 16924, read-out: plasma concentration during the wash-out period
[8] = male, beagle, dog, plasma, intramuscular, 2.5 mg/kg, mean (n=2)
[9] = male, beagle, dog, plasma, intramuscular, 2.5 mg/kg, mean (n=2), read-out: plasma concentration during the wash-out period

- plasma levels during the wash-out period (range) (both dogs, days 36 to 148): 1.24 to 4.23 ng/mL
- plasma concentration during the wash-out period (dog No. 16924, day 272): <1.00 ng/mL
- half-life (male, beagle, dog, plasma, 2.5 mg/kg, dog No. 16854, half-life between 8 h and 24 h, read-out: t1/2, 8-24 h (converted)): 8.9 h
- Cmax [1]: 39.9 ng/mL
- Tmax [1]: 8 h
- AUC(0-t) [1]: 2120 ng·h/mL
- half-life (male, beagle, dog, plasma, 2.5 mg/kg, dog No. 16854, read-out: t1/2, 24-72 h (converted)): 75.2 h
- half-life (male, beagle, dog, plasma, 2.5 mg/kg, dog No. 16924, half-life between 1 h and 24 h, read-out: t1/2, 1-24 h (converted)): 15.1 h
- Cmax [2]: 23.8 ng/mL
- Tmax [2]: 1 h
- AUC(0-t) [2]: 1600 ng·h/mL
- half-life (male, beagle, dog, plasma, 2.5 mg/kg, dog No. 16924, read-out: t1/2, 24-72 h (converted)): 51 h
- Cmax [3]: 31.9 ng/mL
- Tmax [3]: 5 h
- AUC(0-t) [3]: 1860 ng·h/mL
- half-life (male, beagle, dog, plasma, 2.5 mg/kg, mean (n=2), read-out: t1/2, 24-72 h (converted)): 63 h
- concentration at 0 h [4]: < 1 ng/mL
- concentration at 0.5 h [4]: 13.5 ng/mL
- concentration at 1 h [4]: 17 ng/mL
- concentration at 2 h [4]: 20.6 ng/mL
- concentration at 4 h [4]: 27.2 ng/mL
- concentration at 8 h [4]: 39.9 ng/mL
- concentration at 24 h [4]: 11.4 ng/mL
- concentration at 32 h [4]: 10.7 ng/mL
- concentration at 48 h [4]: 9.03 ng/mL
- concentration at 72 h [4]: 7.37 ng/mL
- concentration at 96 h [4]: 6.4 ng/mL
- concentration at 144 h [4]: 3.19 ng/mL
- concentration at 192 h [4]: 2.8 ng/mL
- concentration at 240 h [4]: 6.16 ng/mL
- concentration at 312 h [4]: 4.24 ng/mL
- concentration at 36 day [5]: 3.66 ng/mL
- concentration at 50 day [5]: 4.1 ng/mL
- concentration at 64 day [5]: 2.18 ng/mL
- concentration at 78 day [5]: 2.62 ng/mL
- concentration at 92 day [5]: 2.32 ng/mL
- concentration at 106 day [5]: 2.02 ng/mL
- concentration at 120 day [5]: 1.87 ng/mL
- concentration at 134 day [5]: 1.67 ng/mL
- concentration at 148 day [5]: 1.41 ng/mL
- concentration at 0 h [6]: < 1 ng/mL
- concentration at 0.5 h [6]: 21.3 ng/mL
- concentration at 1 h [6]: 23.8 ng/mL
- concentration at 2 h [6]: 20.9 ng/mL
- concentration at 4 h [6]: 17.1 ng/mL
- concentration at 8 h [6]: 15.1 ng/mL
- concentration at 24 h [6]: 7.7 ng/mL
- concentration at 32 h [6]: 6.65 ng/mL
- concentration at 48 h [6]: 6.03 ng/mL
- concentration at 72 h [6]: 3.9 ng/mL
- concentration at 96 h [6]: 3.97 ng/mL
- concentration at 144 h [6]: 3.65 ng/mL
- concentration at 192 h [6]: 3.57 ng/mL
- concentration at 240 h [6]: 4.38 ng/mL
- concentration at 312 h [6]: 5.97 ng/mL
- concentration at 36 day [7]: 3.05 ng/mL
- concentration at 50 day [7]: 2.12 ng/mL
- concentration at 64 day [7]: 2.42 ng/mL
- concentration at 78 day [7]: 1.69 ng/mL
- concentration at 92 day [7]: 2.51 ng/mL
- concentration at 106 day [7]: 1.75 ng/mL
- concentration at 120 day [7]: 4.23 ng/mL
- concentration at 134 day [7]: 1.61 ng/mL
- concentration at 148 day [7]: 1.24 ng/mL
- concentration at 272 day (male, beagle, dog, plasma, intramuscular, 2.5 mg/kg, dog No. 16924, day 272, read-out: plasma concentration during the wash-out period): < 1 ng/mL
- concentration at 0 h [8]: < 1 ng/mL
- concentration at 0.5 h [8]: 17.4 ng/mL
- concentration at 1 h [8]: 20.4 ng/mL
- concentration at 2 h [8]: 20.8 ng/mL
- concentration at 4 h [8]: 22.2 ng/mL
- concentration at 8 h [8]: 27.5 ng/mL
- concentration at 24 h [8]: 9.55 ng/mL
- concentration at 32 h [8]: 8.68 ng/mL
- concentration at 48 h [8]: 7.53 ng/mL
- concentration at 72 h [8]: 5.64 ng/mL
- concentration at 96 h [8]: 5.19 ng/mL
- concentration at 144 h [8]: 3.42 ng/mL
- concentration at 192 h [8]: 3.19 ng/mL
- concentration at 240 h [8]: 5.27 ng/mL
- concentration at 312 h [8]: 5.11 ng/mL
- concentration at 36 day [9]: 3.36 ng/mL
- concentration at 50 day [9]: 3.11 ng/mL
- concentration at 64 day [9]: 2.3 ng/mL
- concentration at 78 day [9]: 2.16 ng/mL
- concentration at 92 day [9]: 2.42 ng/mL
- concentration at 106 day [9]: 1.89 ng/mL
- concentration at 120 day [9]: 3.05 ng/mL
- concentration at 134 day [9]: 1.64 ng/mL
- concentration at 148 day [9]: 1.33 ng/mL
- t1/2, 24-72 h (mean (n=2)): 63.1 h
Structure (SMILES): Cc1cc(C=CC#N)cc(C)c1Nc1ccnc(Nc2ccc(C#N)cc2)n1 [TMC278, 4-[[4-[[4-(2-cyanoethenyl)-2,6-dimethylphenyl]amino]-2-pyrimidinyl]-amino]benzonitrile]
